Drawing on PubChem BioAssay (NCI), this text covers TGI for seven compounds.

The structures appear in SMILES notation.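 Where inhibition never reached the appropriate level, the endpoint shown equals the highest concentration tested. Otherwise, values were interpolated linearly from a five-concentration, 48-hour dose response in 96-well plates. TGI: total growth inhibition.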

What all share (assay): growth of human tumour cells (NCI), 48 h
Experiment [1] deals with HT29 colon.
Experiment [2] relates to NCI-H226 lung.
Experiment [3] relates to IGROV1 ovarian.
In experiment [4] the test system is HL-60(TB) leukemia.
Experiment [5] relates to CCRF-CEM leukemia.
In experiment [6] the test system is HCT-116 colon.
The subject of experiment [7] is NCI-H23 lung.
Experiment [8] concerns OVCAR-8 ovarian.
For experiment [9], the system named is COLO 205 colon.
Experiment [10] concerns BT-549 breast.

As for `Cc1nc2ccc(Cl)cc2c2c1CCN2c1ccccc1`, the TGI was over 100 µM in experiment [1]; 22 µM in experiment [2]; over 100 µM in [3]; 11.1 µM in experiment [4]; 23.1 µM in experiment [5]; 17.6 µM in experiment [6]. Besides, the TGI came to 43.6 µM in experiment [7], 29.1 µM in [8], 18.1 µM in [9] and 31.2 µM in experiment [10].

As to `Cc1ccc(-c2n[nH]c(=O)n2/N=C\c2ccccc2)cc1`, the TGI in experiment [1], in [2], in experiment [3], in experiment [4], in experiment [5] and in experiment [6] was over 100 µM in each case. Also, the TGI in [7] was over 100 µM; in experiment [8], over 100 µM; in experiment [9], over 100 µM; in [10], over 73.8 µM.

On to `COc1ccc(-c2cc(C(O)C3CCCCN3)c3ccccc3n2)cc1` (stereo not given), for which the TGI in [1] is 11.5 µM; in experiment [2], 20.9 µM; in [3], 22.4 µM; in experiment [4], 26.4 µM; in [5], 9.08 µM; in experiment [6] it was 21.5 µM. Moreover, the TGI in [7] turned out to be 31.6 µM; in experiment [8] it was 29.5 µM; in [9], 3.54 µM; in experiment [10], 32.2 µM.

For the compound `C(/Cc1ccc2c(c1)OCO2)=N\NC1=NCCCN1`, the TGI in experiment [1], in experiment [2], in experiment [3], in experiment [4], in experiment [5] and in experiment [6] was over 100 µM each time. Moreover, the TGI in experiment [7], in experiment [8], in experiment [9] and in experiment [10] was over 100 µM in each case.

In the case of `Cc1ccc(/C(O)=C/c2nc3ccc([N+](=O)[O-])cc3nc2/C=C(\O)c2ccc(C)cc2)cc1`, the TGI in [1], in experiment [2], in experiment [3], in experiment [4], in [5] and in experiment [6] was over 100 µM throughout. The TGI in experiment [7], in experiment [8], in experiment [9] and in experiment [10] was over 100 µM in each case.

Take `O=C1c2ccccc2C(=O)N1c1nc(-c2ccc(Cl)cc2)cc(N2N=C(c3ccc(Br)cc3)CC2c2ccccc2)n1` (stereo not given): the TGI was 9.66 µM in [1]; 29.8 µM in experiment [2]; over 32.6 µM in experiment [3]; over 100 µM in experiment [4]; over 29.6 µM in experiment [5]; over 20.5 µM in experiment [6]. The TGI is over 22.6 µM in [7], over 24.1 µM in experiment [8], 4.84 µM in experiment [9] and 16.8 µM in experiment [10].

`Cn1c2ccccc2n2c3ncccc3c(=S)c(C#N)c12`: the TGI in experiment [1], in experiment [2], in experiment [3], in experiment [4], in experiment [5] and in experiment [6] was over 100 µM in each case. Besides, the TGI in [7], in experiment [8], in [9] and in [10] was over 100 µM throughout.
